{
  "source": "patent US9802974B2",
  "about": "“Synthesis of diverse glycosylphosphatidylinositol glycans from Toxoplasma gondii and their application as vaccines and diagnostics” (Max-Planck-Gesellschaft zur Förderung der Wissenschaften …, priority 2012, dated 2017)",
  "system": "T. gondii tachyzoites",
  "test": "Immunofluorescence confocal microscopy of T. gondii tachyzoites with serum of mice immunized with the compound 4-CRM197 conjugate",
  "format": "binding, Toxoplasma gondii",
  "conditions": "paraformaldehyde-fixed tachyzoites, pooled serum from immunized mice, FIG. 13",
  "description": "Full circle in (C) indicates the apical and half circle the basolateral end of the parasite (white bar=5 μm).\nExtracellular tachyzoites collected from cell culture supernatants were fixed with 4% (w/v) paraformaldehyde in PBS for 30 min. Cells were washed three times with PBS, and incubated for 1 h with mice sera raised against compounds 3 or 4 diluted to 100 in PBS, 10% BSA. Cells were washed three times with PBS before incubated for 1 h with secondary FITC-conjugated anti-mouse immunoglobulin antibody (DakoCytomation, Glostrup) containing 10% BSA and washed finally three times with PBS. After three final washes with PBS, aliquot were spotted on microscope slides followed by a glass cover slides, mounted in Fluoroprep (Dako) and recorded by using a 100× Plan-NeoFluar oil objective lens with NA 1.30 using an Axiophot microscop (Zeiss).\nIn contrast, antibodies binding to the parasite in sera of mice before immunization could not be detected. […] Tachyzoites secrete factors for attachment, invasion and formation of the parasitophorous vacuole, which is surrounding and protecting the parasite inside the host cell from endocytosis, in a regulated fashion from the apical region. […]",
  "data": [
    {"substance": "6-O-(aminoethyl phosphono)-α-D-mannopyranosyl-(1→2)-α-D-mannopyranosyl-(1→6)-4-O-(α-D-glucopyranosyl-(1→4)-2-deoxy-2-acetamido-β-D-galactopyranosyl)-α-D-manno-pyranosyl-(1→4)-2-amino-2-deoxy-α-D-glucopyranosyl-(1→6)-1-O-(thiohexyl phosphono)-D-myo-inositol [compound 4]", "values": [
      {"measurement": "recognition of the natural GPI antigen on the T. gondii parasite by antibodies raised against the substance", "result": "bound to the surface of the parasite"}
    ]}
  ]
}
